Measured values reported in patent US11077090B2, “Compounds and compositions and uses thereof” (Sunovion Pharmaceuticals Inc., priority 2016, dated 2021).

How the values were obtained:
Type in all cases: in vivo
Adult male AJ mice = assay: Tail suspension test (TST); set-up: key: −: No decrease in Mean Total Time Immobile; +: Significant decrease in Mean Total Time Immobile (P < 0.05 vs vehicle); settings: 3 mg/kg PO
From the text: The tail suspension test (TST) is a rodent screening test for potential (human) antidepressant drugs. It is based on the assumption that an animal will actively try to escape an aversive (stressful) stimulus. If escape is impossible, the animal will eventually stop trying (“give up”). In the TST, a mouse is suspended by the tail so that its body dangles in the air, head downward. Mice initially struggle to face upward and climb to a solid surface. When the animal stops struggling and hangs immobile it is considered to have “given up”. Shorter periods of immobility are characteristic of antidepressant-like activity. Accordingly, longer periods of immobility are considered indicative of a depressive-like state. It has been shown that treatment with an antidepressant drug will decrease the time the animal spends immobile. See generally L. Steru et al., Psychopharmacology (Berl). 1985; 85(3):367-70; B. Thierry et al., Psychopharmacology 1986; 90:284-85.
Adult male AJ mice from Jackson Laboratories received vehicle (sterile water) or test compound orally by gavage, or the positive control desipramine (20 mg/kg, i.p.), in 10 mL/kg injection volumes, 30 min before being subjected to the Tail Suspension Test. In this test, mice are placed in the Tail Suspension chambers (white polyvinylchloride cubicles measuring 33×33×31.75 cm Med Associates, Inc. St. Albans, Vt.) by a piece of transparent (Scotch®) tape attached to the tail, from about the mid-tail, with approximately 2 cm of tape past the end of the tail for 10 min during which the time spent immobile is measured. A reduction in total time immobile relative to the vehicle condition indicates an antidepressant drug-like response.

Male C57Bl/6J mice [1] = assay: Prepulse inhibition of startle (PPI); set-up: key: −: No change in PPI; +: Significant increase in PPI at one pre-pulse intensity (P < 0.05 vs vehicle); ++: Significant increase in PPI at two pre-pulse intensities (P < 0.05 vs vehicle); +++: Significant increase in PPI at three pre-pulse intensities (P < 0.05 vs vehicle); settings: 3 mg/kg PO
From the text: The acoustic startle is an unconditioned reflex response to an external auditory stimulus. Prepulse inhibition of startle (PPI) refers to the reduction in the startle response caused by the presentation of a low-intensity auditory stimulus prior to the startle stimulus. The PPI paradigm is used for the study of schizophrenia and antipsychotic action due to the similarities between the results from human and rodent studies. PPI has been used as a tool for the assessment of deficiencies in sensory-motor gating observed in schizophrenia and to screen for potential antipsychotic drugs. Various psychotomimetic drugs, such as phencyclidine (PCP), can disrupt PPI. In mice, antipsychotic drugs such as haloperidol can increase PPI and clozapine can reverse the disruption of PPI induced by PCP.
Male C57Bl/6J mice from Jackson Laboratories were placed in the PPI chambers (Med Associates) for a 5 min session of white noise (70 dB) habituation. After the habituation period, the test session was initiated. The session started with a habituation block of 6 presentations of the startle stimulus alone, followed by 10 PPI blocks, each of which consisted of 6 different types of trials. Trial types were: ‘null’ (no stimuli), ‘startle’ (120 dB), ‘startle plus prepulse’ (4, 8, and 12 dB over background noise, i.e., 74, 78, or 82 dB) and ‘prepulse’ (82 dB). Trial types were presented in a random order within each block. Each trial started with a 50 ms stimulus-free period during which baseline movements were recorded. This was followed by a subsequent 20 ms period during which the prepulse stimulus was presented and responses to the prepulse measured. After a further 100 ms period, the startle stimulus was presented for 40 ms and responses recorded for 100 ms from startle onset. Responses were sampled every ms. The inter-trial interval was variable with an average of 15 s (range from 10 to 20 s). In ‘startle’ trials, the basic auditory startle response was measured. The basic startle response was calculated as the mean startle response of all ‘startle’ trials (i.e., excluding the first habituation block). In ‘startle plus prepulse’ trials, the degree of inhibition of the normal startle was calculated and expressed as a percentage of the basic startle response.
Mice were treated with vehicle or test compound orally by gavage, or haloperidol (1 mg/kg, i.p.), in 10 mL/kg injection volumes, 30 min prior to PPI test. The PPI enclosures were cleaned following each test. An increase in the percent PPI relative to the vehicle condition indicates an antipsychotic drug-like response.

Male C57Bl/6J mice [2] = assay: Marble burying test; set-up: key: −: No reduction in number of marbles buried; +: Significant reduction in number of marbles buried (P < 0.05 vs vehicle)
Experimental: The marble burying assay is used to evaluate the anxiolytic activity of a test compound. After placement in a novel cage containing glass marbles, mice will bury the marbles. Acute administration of anxiolytic agents, as well as antidepressants, decrease this activity at non-sedating doses. Male C57Bl/6J mice from Jackson Laboratories were used in this study and were acclimatized to the experimental room for at least 1 hour prior to testing. Mice (n=10 per group) were administered sterile water or test compound intraperitoneally (i.p.) or orally by gavage (p.o.), or the positive control chlordiazepoxide (15 mg/kg, i.p.), in 10 mL/kg injection volumes, and returned to their home cages for a 30-minute pretreatment period. The mice were then placed individually in clean cages, containing hard wood bedding and twenty black marbles placed in spaced rows of 4×5. After a 30-minute test session, the number of buried marbles was counted. A marble was considered buried if it was pushed at least two thirds into the bedding. Locomotor activity was monitored by measuring the distance traveled using an overhead camera and Video Tracker Software (ViewPoint Life Sciences Software, France). A reduction in the number of marbles buried relative to the vehicle condition indicates an anxiolytic drug-like effect.

Male C57Bl/6J mice [3] = assay: Amphetamine induced hyperlocomotion assay; set-up: key: #: Significant increase in total distance traveled (P < 0.05 vs vehicle + AMPH group); −: No change in total distance traveled; Significant decrease in total distance traveled (P < 0.05 vs vehicle + AMPH group); settings: 3 mg/kg PO Compound + AMPH
Experimental: Psychostimulants such as amphetamine (AMPH) are frequently used to induce or mimic a manic-like or psychotic-like state. AMPH administration to rodents increases horizontal locomotion, vertical rearing and repetitive stereotyped behaviors, and typical antipsychotic drugs, such as haloperidol, can reduce these behaviors. The antimanic/antipsychotic-like effects of test compounds were evaluated in male C57Bl/6J mice from Jackson Laboratories Mice were acclimatized to the experimental room for at least 1 hour prior to testing. The mice (n=10 per group) were administered vehicle or test compound orally by gavage (10 mL/kg injection volume) and placed individually in the novel open field (OF) chambers (Med Associates) for 30 minutes of baseline activity measurement. Mice were then injected with either water or AMPH (4 mg/kg, i.p., 10 mL/kg) and placed back in the same individual OF chambers for a 60-minute testing session during which the effects of test compounds on stimulant-induced behaviors (total distance traveled, rearing and stereotypy) were measured. A reduction in total distance traveled relative to the vehicle+AMPH condition indicates an antimanic/antipsychotic drug-like response.

male Sprague-Dawley rats = assay: Stress induced hyperthermia (SIH) assay; set-up: key: −: No change in Delta T ([…]T); +: Significant decrease in Delta T ([…]T) (P < 0.05 vs vehicle)
From the text: Stress-induced hyperthermia (SIH), mediated by the autonomic nervous system, is well known to occur prior to and during exposure to stress and/or anxiety-inducing situations. In many human anxiety disorders, it occurs as an integral part of the pathology and is often considered a representative symptom of the disease, e.g. in generalized anxiety disorder as defined in DSM-IV. In rodents, acute administration of anxiolytic drugs, such as buspirone or chlordiazepoxide (CDP), are known to reduce the SIH response to stressors such as handling, noise, heat, novelty, or pain. The test involves two measures of rectal temperature repeated in the same animal with a 10-minute interval. On the day prior to testing, male Sprague-Dawley rats from Envigo (n=10 per group) were brought to the experimental room approximately one hour before scheduled lights out and singly housed overnight with food and water ad libitum. On the morning of the experiment, animals were first injected with either vehicle or test compound orally by gavage, or CDP (10 mg/kg, i.p.). One hour following injection, each animal was removed from the holding cage and held in a supine position while the rectal temperature was measured by slowly inserting a rectal probe into the animal's rectum at a length of approximately 0.5 cm. The rectal probe was attached to a PhysiTemp digital thermometer (Fisher Scientific) which provides temperature readings at 0.1° C. accuracy. The probe remained inside the animal for approximately 5 seconds or until body temperature reaches stability. This temperature was recorded as the baseline rectal temperature (T1). The animal was immediately placed back to the holding cage and after a 10-min interval the second rectal temperature (T2) was taken using the same procedure as in measuring T1. Before each insertion, the rectal probe was cleaned with an alcohol pad and lubricated with sterile K-Y jelly. All SIH studies were conducted between 8:00-11:00 a.m. The SIH response was calculated as the difference in temperature between the second and first temperature reading (Delta T, […]T). A reduction in […]T relative to the vehicle condition indicates an anxiolytic drug-like response.

compound-treated mice = assay: Neuropharmacological assay (SmartCube): behavioral activity signature and minimal effective dose
In short: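 Video-recorded behavior is compared algorithmically against a reference-compound database, yielding class probabilities (best dose reported). Compounds given i.p. in NMP/PEG/propylene glycol 15 min pre-test at 3 doses; potency as MED, the dose (mpk, range usually 0.3–30) reaching ≥50% total activity.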

[4] = i.p. 15 min before test, most efficacious dose(s)

N[C@H]1COCc2ccc(F)cc21 (single isomer, unassigned) [Compound 114]
Mean Total Time Immobile (Adult male AJ mice): − | Effect on Pre-Pulse Inhibition (PPI) (Male C57Bl/6J mice [1]): − | Marbles Buried (Male C57Bl/6J mice [2]; 1 mg/kg (p.o.)): − | Total Distance Traveled (Male C57Bl/6J mice [3]): −

N[C@@H]1COCc2ccc3ccccc3c21 (single isomer, unassigned) [Compound 117]
Mean Total Time Immobile (Adult male AJ mice): − | Effect on Pre-Pulse Inhibition (PPI) (Male C57Bl/6J mice [1]): − | Marbles Buried (Male C57Bl/6J mice [2]; 1 mg/kg (p.o.)): − | Total Distance Traveled (Male C57Bl/6J mice [3]): −

N[C@H]1COCc2ccc3ccccc3c21 (single isomer, unassigned) [Compound 118]
Mean Total Time Immobile (Adult male AJ mice): − | Effect on Pre-Pulse Inhibition (PPI) (Male C57Bl/6J mice [1]): − | Marbles Buried (Male C57Bl/6J mice [2]; 3 mg/kg (p.o.)): − | Total Distance Traveled (Male C57Bl/6J mice [3]): −

C[C@@H]1OCc2ccccc2[C@H]1N (single isomer, unassigned) [Example 152]
Delta T ([…]T) (male Sprague-Dawley rats; 1 mg/kg PO): + | Delta T ([…]T) (male Sprague-Dawley rats; 3 mg/kg PO): + | Delta T ([…]T) (male Sprague-Dawley rats; 10 mg/kg PO): + | Delta T ([…]T) (male Sprague-Dawley rats; 30 mg/kg PO): + | Potency: minimal effective dose (MED) (compound-treated mice; MED = dose having 50% or more total activity): A (≤3 mpk) | AD: ADHD (probability of activity signature) (compound-treated mice; [4]): + (LOQ ≤ + <5%) | AG: analgesic (probability of activity signature) (compound-treated mice; [4]): ++ (5% ≤ ++ <25%) | AX: anxiolytic (probability of activity signature) (compound-treated mice; [4]): +++ (25% ≤ +++ <50%) | CE: cognitive enhancer (probability of activity signature) (compound-treated mice; [4]): ++ (5% ≤ ++ <25%) | DP: anti-depressant (probability of activity signature) (compound-treated mice; [4]): ++ (5% ≤ ++ <25%) | MS: mood stabilizer (probability of activity signature) (compound-treated mice; [4]): + (LOQ ≤ + <5%) | PS: anti-psychotic (probability of activity signature) (compound-treated mice; [4]): ++ (5% ≤ ++ <25%) | SD: sedative hypnotic (probability of activity signature) (compound-treated mice; [4]): + (LOQ ≤ + <5%) | UN: uncharacterized CNS activity (probability of activity signature) (compound-treated mice; [4]): +++ (25% ≤ +++ <50%) | Marbles Buried (Male C57Bl/6J mice [2]; 3 mg/kg (i.p.)): − | Marbles Buried (Male C57Bl/6J mice [2]; 10 mg/kg (i.p.)): +
